According to paper PMC4728505 (Marine Drugs, 2015):
*1 amine or outer side, *2 acyl side, *3 side chain or, on linkers, in order; H or OH if unused. Where a SMILES comes first, the peptide text is derived from it. Bridges are numbered along the chain shown (N, C = ends). [ ]: non-standard residue; d: D form. NMehTyr = CN[C@@H](CCc1ccc(O)cc1)C(=O)O; hTyr = N[C@@H](CCc1ccc(O)cc1)C(=O)O; NMeA = CN[C@@H](C)C(=O)O; CO = O=C([*:1])[*:2]

Tests used:
[1] = target: T1, protein phosphatase 1 (Oryctolagus cuniculus, UniProt P62139); assay: biochemical; format: biochemical; conditions: for PP1 inhibition (in words): acquired standards
T1 construct: purchased New England Biolabs

[2] = test system: PP1 (from rabbit skeletal muscle); conditions: cited from earlier work; for PP1 inhibition reported (in words): PP1 from rabbit skeletal muscle
[3] = target: T2, carboxypeptidase A (Bos taurus, UniProt P00730); assay: Carboxypeptidase A inhibition assay; format: biochemical; conditions: acquired standards
T2 construct: purchased Sigma-Aldrich C9268
T2 sequence (P00730 111-419): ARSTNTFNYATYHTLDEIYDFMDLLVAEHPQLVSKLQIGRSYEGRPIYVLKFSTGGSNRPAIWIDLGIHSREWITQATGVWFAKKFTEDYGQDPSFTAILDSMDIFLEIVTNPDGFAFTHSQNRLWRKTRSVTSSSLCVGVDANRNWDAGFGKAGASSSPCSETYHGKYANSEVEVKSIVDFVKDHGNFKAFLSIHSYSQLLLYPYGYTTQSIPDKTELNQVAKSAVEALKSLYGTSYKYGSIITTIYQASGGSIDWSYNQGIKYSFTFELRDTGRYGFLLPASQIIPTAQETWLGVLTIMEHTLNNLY
Source text: The following reagents used for enzymatic assays were purchased from Sigma-Aldrich: trypsin (product number T0303), thrombin bovine plasma (T4648), elastase (E0258), carboxypeptidase A (C9268), aprotinine (A6103), N-p-tosyl-Gly-Pro-Lys-p-nitroanilide acetate salt (T6140), N-Succinyl-Gly-Gly-Phe-p-nitroanilide (S1899), 4-(2-Aminoethyl) benzenesulfonyl fluoride hydrochloride—AEBSF (A8456), elastatinal (E0881), N-Succinyl-Ala-Ala-Ala-p-nitroanilide (S4760), carboxypeptidase inhibitor—CPI (C0297), p-nitrophenyl phosphate disodium salt hexahydrate—p-NPP (71768), albumin bovine—BSA (A4503) and DL-dithiothreitol DTT (D0632).
APs were assayed for bioactivity by protein phosphatase 1, carboxypeptidase A, trypsin, elastase and thrombin inhibition assays as described in Mazur-Marzec et al. 2015 [50].

[4] = target: T2, carboxypeptidase A; parameters: method as in PMID 11000037; conditions: read-out: CPA IC50 (converted); cited from earlier work

T1 sequence (P62139 whole entry): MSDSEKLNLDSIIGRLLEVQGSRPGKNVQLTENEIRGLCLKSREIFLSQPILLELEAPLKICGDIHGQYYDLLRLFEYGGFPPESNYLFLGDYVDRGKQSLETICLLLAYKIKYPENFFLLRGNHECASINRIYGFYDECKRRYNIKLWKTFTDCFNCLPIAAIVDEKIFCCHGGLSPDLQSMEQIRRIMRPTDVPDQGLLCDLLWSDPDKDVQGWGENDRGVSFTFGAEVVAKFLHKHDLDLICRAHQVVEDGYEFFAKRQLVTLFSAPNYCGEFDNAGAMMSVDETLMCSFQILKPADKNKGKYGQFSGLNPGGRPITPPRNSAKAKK

SMILES | PP1 inhibition (in words) [1] | PP1 inhibition reported (in words) [2] | further results
CC(C)C1NC(=O)C(NC(=O)NC(Cc2ccc(O)cc2)C(=O)O)CCCCNC(=O)C(Cc2ccccc2)NC(=O)C(C)N(C)C(=O)C(CCc2ccc(O)cc2)NC1=O (stereo not drawn) [Anabaenopeptin A, Tyr + CO[Lys + Val + Hty + MeAla + Phe]] | showed inhibition | inhibition | –
CC(C)[C@@H]1NC(=O)[C@H](NC(=O)N[C@@H](CCCNC(=N)N)C(=O)O)CCCCNC(=O)[C@H](Cc2ccccc2)NC(=O)[C@H](C)N(C)C(=O)[C@H](CCc2ccc(O)cc2)NC1=O [Anabaenopeptin B] ({Arg-CO}-[dK]V[hTyr][NMeA]F; lactam 1-C) | showed inhibition | inhibition | –
CC[C@H](C)[C@H](NC(=O)N[C@@H]1CCCCNC(=O)[C@H](Cc2ccccc2)NC(=O)[C@H](C)N(C)C(=O)[C@H](CCc2ccc(O)cc2)NC(=O)[C@H](C(C)C)NC1=O)C(=O)O [Anabaenopeptin J] ({Ile-CO}-[dK]V[hTyr][NMeA]F; lactam 1-C) | showed inhibition | – | Activity against CPA (in words) [3]: active
CC[C@H](C)[C@@H]1NC(=O)[C@H](NC(=O)N[C@@H](CCCNC(=N)N)C(=O)O)CCCCNC(=O)[C@H](Cc2ccccc2)NC(=O)[C@H](CCc2ccc(O)cc2)N(C)C(=O)[C@H](CCc2ccc(O)cc2)NC1=O [Osc C] ({Arg-CO}-[dK]I[hTyr][NMehTyr]F; lactam 1-C) | – | inhibition | IC50 [2]: 900 nM
CC[C@H](C)[C@@H]1NC(=O)[C@H](NC(=O)N[C@@H](Cc2ccc(O)cc2)C(=O)O)CCCCNC(=O)[C@H](Cc2ccccc2)NC(=O)[C@H](C)N(C)C(=O)[C@H](CCc2ccc(O)cc2)NC1=O [Oscillamide Y, Tyr + CO[Lys + Ile + Hty + MeAla + Phe]] ({Tyr-CO}-[dK]I[hTyr][NMeA]F; lactam 1-C) | showed inhibition | – | Activity against CPA (in words) [3]: active; IC50 [1]: 72.3 nM; PP1 inhibition (in words) ([2]; at 100 μg/mL): no effect
CC[C@H](C)[C@@H]1NC(=O)[C@H](NC(=O)N[C@@H](CCCNC(=N)N)C(=O)O)CCCCNC(=O)[C@H](Cc2ccccc2)NC(=O)[C@H](C)N(C)C(=O)[C@H](CCc2ccc(O)cc2)NC1=O [anabaenopeptin F] ({Arg-CO}-[dK]I[hTyr][NMeA]F; lactam 1-C) | – | inhibition | –
CC[C@H](C)[C@@H]1NC(=O)[C@H](NC(=O)N[C@@H](CCCNC(=N)N)C(=O)O)CCCCNC(=O)[C@H]([C@@H](C)CC)NC(=O)[C@H](CCc2ccc(O)cc2)N(C)C(=O)[C@H](CCc2ccc(O)cc2)NC1=O [anabaenopeptin H] ({Arg-CO}-[dK]I[hTyr][NMehTyr]I; lactam 1-C) | – | – | IC50 [4]: 3680 nM
CSCC[C@@H]1NC(=O)[C@H](NC(=O)N[C@@H](CCCNC(=N)N)C(=O)O)CCCCNC(=O)[C@H](Cc2ccccc2)NC(=O)[C@H](C)N(C)C(=O)[C@H](CCc2ccc(O)cc2)NC1=O [oscillamide B] ({Arg-CO}-[dK]M[hTyr][NMeA]F; lactam 1-C) | – | inhibition | –
